Reference: patent US20250034135A1, “ANTI-APOPTOTIC PROTEIN BCL-2 INHIBITOR, PHARMACEUTICAL COMPOSITION AND USES THEREOF” (HANGZHOU HEALZEN THERAPEUTICS CO., LTD., priority 2021, published 2025)
Where two headings read alike, the source gives them in different places. One block for each compound: values may come before it.

Assays:
BCL2 = BCL2 (Homo sapiens (Human), UniProt P10415); assay: Molecular level activity test of anti-apoptotic protein BCL2 (HTRF, binding to Bim peptide); conditions: HTRF, binding of BCL2 to Bim peptide; read-out: BCL2 nM (inhibitory activity, IC50)
Summary of the method: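 HTRF binding of His-tagged recombinant BCL2 to biotin-tagged Bim peptide, compound in 2% DMSO. After 1 h reaction, anti-His and streptavidin-XL665 detection reagents were added and incubated 4 h at room temperature before reading.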

BCL2 (G101V) = BCL2 (G101V) (Homo sapiens (Human), UniProt P10415, G101V); assay: Molecular level activity test of anti-apoptotic protein BCL2 (G101V) (HTRF, binding to Bim peptide); conditions: inhibition of BCL2 (G101V) binding to Bim peptide, read-out: BCL-2 (G101V)
Procedure: (§1) The detection of the binding ability between anti-apoptotic protein BCL2 (G101V) and pro-apoptotic protein Bim was performed using Homogeneous Time-Resolved Fluorescence technology. The reaction of this method occurred in a white shallow 384-well plate, with a total reaction volume of 10 μL. Specifically, it included 2 μL of the compound to be tested (2% DMSO), 4 μL His-tagged recombinant protein, and 4 μL Biotin-tagged BIM protein peptide. After 1 hour of reaction, 5 L of each Anti-His and streptavidin-tagged XL665 antibody diluents diluted with a detection buffer were added. After incubating at room temperature for 4 hours, the values were read using the Envision multifunctional microplate reader to detect the effect of the compound to be tested on the binding ability of BCL2 (G101V) to BIM protein peptides.

BCL2 (D103Y) = BCL2 (D103Y) (Homo sapiens (Human), UniProt P10415, D103Y); assay: Molecular level activity test of BCL2 (D103Y) (HTRF, binding to Bim peptide); conditions: read-out: BCL-2 (D103Y) (nM) (inhibitory activity, IC50)
Procedure: as §1, with “BCL2 (D103Y)” for “BCL2 (G101V)”, “5 μL” for “5 L”

RS4; 11 cells = assay: Tumor proliferation inhibitory activity test (MTS) on RS4; 11; type: cell-based; conditions: Homo sapiens, RS4-11, 72 h, 3 days incubation
Procedure: The cell proliferation inhibitory ability of the compounds on RS4; 11 was tested using the MTS method. MTS is a tetrazolium blue salt compound that can be reduced by various dehydrogenases in live cell mitochondria to their respective colored methylzan products. Its color depth is highly correlated with the number of live cells in certain sensitive cell lines within a certain range. RS4; 11, RS4; 11 (BCL-2-G101V) and MOLT-4 tumor cells were cultivated separately and collected, 180 μL of cell suspension was added to each well in a 96-well cell plate, 20 μL of DMSO with a final concentration of 0.2% was added to the control cell wells, 20 μL of gradient diluted compounds were added to cell wells, and the treated cells were incubated in a 5% CO2 incubator at 37° C. for 3 days. After the incubation was completed, the reaction solution was prepared according to the MTS reagent kit, 20 μL was added per well and incubated in a 5% CO2 incubator at 37° C. for 3-4 hours. The absorbance value at 490 nm was read using an enzyme-linked immunosorbent assay (ELISA) plate, and the absorbance value at 690 nm was used as the background value, with OD490 nm-OD690 nm as the final raw data. The formula for calculating the inhibition ratio of compounds was as follows: inhibition ratio=(ODDMSO−ODCompound)/(ODDMSO−ODblank)×100%.

BCL-XL = BCL-XL (Homo sapiens (Human), UniProt Q07817); assay: BCL-XL enzyme molecular level activity test (HTRF, binding to BIM peptide); conditions: binding of BCL-XL to BIM peptide, read-out: BCL-XL inhibitory activity (IC50)
Summary of the method: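 HTRF binding assay: His-tagged recombinant BCL-XL with biotin-BIM peptide and compound (2% DMSO), 1 h. Anti-His and streptavidin-XL665 detection reagents added, 4 h at room temperature. Excitation 320 nm; 665/615 nm ratio reflects binding, with no-protein background and no-compound full-binding controls.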

BCL-XL, sequence (Q07817 whole entry): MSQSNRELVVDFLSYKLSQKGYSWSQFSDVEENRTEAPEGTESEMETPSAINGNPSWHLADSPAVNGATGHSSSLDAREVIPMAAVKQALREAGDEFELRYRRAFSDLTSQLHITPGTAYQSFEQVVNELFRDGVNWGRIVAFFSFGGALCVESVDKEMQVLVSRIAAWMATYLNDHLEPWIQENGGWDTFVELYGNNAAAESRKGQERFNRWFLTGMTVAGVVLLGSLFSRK

- IC50 (BCL2): < 0.01 µM
- IC50 (BCL2 (G101V)): < 0.01 µM
- IC50 (BCL2 (D103Y)): < 10 nM
- IC50 (RS4; 11 cells): 0.0005 to 0.001 µM
- IC50 (BCL-XL; values in nM): > 500 nM
SMILES: COc1ccc(CN2CCN(C3CC4(CCN(c5cc(Oc6cnc7[nH]ccc7c6)c(C(=O)NS(=O)(=O)c6ccc(NCC7(F)CCOCC7)c([N+](=O)[O-])c6)cc5F)CC4)C3)[C@H](c3ccccc3C(C)C)C2)cc1CN1CCCC1 [compound 251, (R)-2-((1H-pyrrolo[2,3-b]pyrid-5-yl)oxy)-5-fluoro-N-((4-(((4-fluorotetrahydro-2H-pyran-4-yl)methyl)amino)-3-nitrophenyl)sulfonyl)-4-(2-(2-(2-isopropylphenyl)-4-(4-methoxy-3-(pyrrolidin-1-ylmethyl)benzyl)piperazin-1-yl)-7-azaspiro[3.5]non-7-yl)benzamide]

- IC50 (BCL2): < 0.01 µM
- IC50 (BCL2 (G101V)): < 0.01 µM
- IC50 (BCL2 (D103Y)): < 10 nM
- IC50 (RS4; 11 cells): 0.0005 to 0.001 µM
- IC50 (BCL-XL; values in nM): > 500 nM
SMILES: COc1ccc(CN2CCN(C3CC4(CCN(c5cc(Oc6cnc7[nH]ccc7c6)c(C(=O)NS(=O)(=O)c6cc([N+](=O)[O-])c(NCC7CCOCC7)c7[nH]cnc67)cn5)CC4)C3)[C@H](c3ccccc3C(C)C)C2)cc1 [compound 267, (R)-4-((1H-pyrrolo[2,3-b]pyrid-5-yl)oxy)-6-(2-(2-(2-isopropylphenyl)-4-(4-methoxybenzyl)piperazin-1-yl)-7-azaspiro[3.5]non-7-yl)-N-((6-nitro-7-(((tetrahydro-2H-pyran-4-yl)methyl)amino)-1H benzo[d]imidazol-4-yl)sulfonyl) nicotinamide]

- IC50 (BCL2): < 0.01 µM
- IC50 (BCL2 (G101V)): < 0.01 µM
- IC50 (BCL2 (D103Y)): < 10 nM
- IC50 (RS4; 11 cells): 0.0005 to 0.001 µM
- IC50 (BCL-XL; values in nM): > 500 nM
SMILES: CNCc1cc(CN2CCN(C3CC4(CCN(c5cc(Oc6cnc7[nH]ccc7c6)c(C(=O)NS(=O)(=O)c6ccc(NCC7(F)CCOCC7)c([N+](=O)[O-])c6)cc5F)CC4)C3)[C@H](c3ccccc3C(C)C)C2)ccc1OC [compound 249, (R)-2-((1H-pyrrolo[2,3-b]pyrid-5-yl)oxy)-5-fluoro-N-((4-(((4-fluorotetrahydro-2H-pyran-4-yl)methyl)amino)-3-nitrophenyl)sulfonyl)-4-(2-(2-(2-isopropylphenyl)-4-(4-methoxy-3-((methylamino)methyl)benzyl)piperazin-1-yl)-7-azaspiro[3.5]non-7-yl)benzamide]

- IC50 (BCL2): < 0.01 µM
- IC50 (BCL2 (G101V)): < 0.01 µM
- IC50 (BCL2 (D103Y)): < 10 nM
- IC50 (RS4; 11 cells): 0.0005 to 0.001 µM
- IC50 (BCL-XL; values in nM): > 500 nM
SMILES: CC(C)c1ccccc1[C@@H]1CN(Cc2cnn(C)c2)CCN1C1CC2(CCN(c3cc(Oc4cnc5[nH]cc(F)c5c4)c(C(=O)NS(=O)(=O)c4ccc(NCC5(F)CCOCC5)c([N+](=O)[O-])c4)cc3F)CC2)C1 [compound 255, (R)-5-fluoro-2-((3-fluoro-1H-pyrrolo[2,3-b]pyrid-5-yl)oxy)-N-((4-(((4-fluorotetrahydro-2H-pyran-4-yl)methyl)amino)-3-nitrophenyl)sulfonyl)-4-(2-(2-(2-isopropylphenyl)-4-((1-methyl-1H-pyrazol-4-yl)methyl)piperazin-1-yl)-7-azaspiro[3.5]non-7-yl)benzamide]

Further lines, the compound ahead of its results:

SMILES: COc1ccc(CN2CCN(C3CC4(CCN(c5cc(Oc6cnc7[nH]ccc7c6)c(C(=O)NS(=O)(=O)c6ccc(NC[C@H]7CC[C@](C)(O)CC7)c([N+](=O)[O-])c6)cc5F)CC4)C3)[C@H](c3ccccc3C(C)C)C2)cc1OC [compound 237, 2-((1H-pyrrolo[2,3-b]pyrid-5-yl)oxy)-4-(2-((R)-4-(3,4-dimethoxybenzyl)-2-(2-isopropylphenyl)piperazin-1-yl)-7-azaspiro[3.5]non-7-yl)-5-fluoro-N-((4-((((1r, 4r)-4-hydroxy-4-methylcyclohexyl)methyl)amino)-3-nitrophenyl)sulfonyl)benzamide]
- IC50 (BCL2): < 0.01 µM
- IC50 (BCL2 (G101V)): < 0.01 µM
- IC50 (BCL2 (D103Y)): < 10 nM
- IC50 (RS4; 11 cells): 0.0005 to 0.001 µM
- IC50 (BCL-XL; values in nM): > 500 nM

SMILES: COc1cc(CN2CCN(C3CC4(CCN(c5cc(Oc6cnc7[nH]ccc7c6)c(C(=O)NS(=O)(=O)c6ccc(NCC7(F)CCOCC7)c([N+](=O)[O-])c6)cc5F)CC4)C3)[C@H](c3ccccc3C(C)C)C2)ccc1CN1CCCC1 [compound 248, (R)-2-((1H-pyrrolo[2,3-b]pyrid-5-yl)oxy)-5-fluoro-N-((4-(((4-fluorotetrahydro-2H-pyran-4-yl)methyl)amino)-3-nitrophenyl)sulfonyl)-4-(2-(2-(2-isopropylphenyl)-4-(3-methoxy-4-(pyrrolidin-1-ylmethyl)benzyl)piperazin-1-yl)-7-azaspiro[3.5]non-7-yl)benzamide]
- IC50 (BCL2): < 0.01 µM
- IC50 (BCL2 (G101V)): < 0.01 µM
- IC50 (BCL2 (D103Y)): < 10 nM
- IC50 (RS4; 11 cells): 0.0005 to 0.001 µM
- IC50 (BCL-XL; values in nM): > 500 nM

SMILES: COc1ccc(CN2CCN(C3CC4(CCN(c5cc(Oc6cnc7[nH]ccc7c6)c(C(=O)NS(=O)(=O)c6cc([N+](=O)[O-])c(NCC7CCOCC7)c7c6OCO7)cc5F)CC4)C3)[C@H](c3ccccc3C(C)C)C2)cc1 [compound 120, (R)-2-((1H-pyrrolo[2,3-b]pyrid-5-yl)oxy)-5-fluoro-4-(2-(2-(2-isopropylphenyl)-4-(4-methoxybenzyl)piperazin-1-yl)-7-azaspiro[3.5]non-7-yl)-N-((6-nitro-7-(((tetrahydro-2H-pyran-4-yl)methyl)amino)benzo[d][1,3]dioxocyclopent-4-yl)sulfonyl)benzamide]
- IC50 (BCL2): < 0.01 µM
- IC50 (BCL2 (G101V)): < 0.01 µM
- IC50 (BCL2 (D103Y)): < 10 nM
- IC50 (RS4; 11 cells): 0.0005 to 0.001 µM
- IC50 (BCL-XL; values given in μM): 1600 nM

SMILES: CC(C)c1ccccc1[C@@H]1CN(Cc2ccc(CN(C)C)cc2)CCN1C1CC2(CCN(c3cc(Oc4cnc5[nH]ccc5c4)c(C(=O)NS(=O)(=O)c4ccc(NCC5(F)CCOCC5)c([N+](=O)[O-])c4)cc3F)CC2)C1 [compound 244, (R)-2-((1H-pyrrolo[2,3-b]pyrid-5-yl)oxy)-4-(2-(4-(4-((dimethylamino)methyl)benzyl)-2-(2-isopropylphenyl)piperazin-1-yl)-7-azaspiro[3.5]non-7-yl)-5-fluoro-N-((4-(((4-fluorotetrahydro-2H-pyran-4-yl)methyl)amino)-3-nitrophenyl)sulfonyl)benzamide]
- IC50 (BCL2): < 0.01 µM
- IC50 (BCL2 (G101V)): < 0.01 µM
- IC50 (BCL2 (D103Y)): < 10 nM
- IC50 (RS4; 11 cells): 0.0005 to 0.001 µM
- IC50 (BCL-XL; values in nM): > 500 nM

SMILES: CC(C)c1ccccc1[C@@H]1CN(Cc2ccc(CN3CCCC3)cc2)CCN1C1CC2(CCN(c3cc(Oc4cnc5[nH]ccc5c4)c(C(=O)NS(=O)(=O)c4ccc(NCC5(F)CCOCC5)c([N+](=O)[O-])c4)cc3F)CC2)C1 [compound 245, (R)-2-((1H-pyrrolo[2,3-b]pyrid-5-yl)oxy)-5-fluoro-N-((4-(((4-fluorotetrahydro-2H-pyran-4-yl)methyl)amino)-3-nitrophenyl)sulfonyl)-4-(2-(2-(2-isopropylphenyl)-4-(4-(pyrrolidin-1-ylmethyl)benzyl)piperazin-1-yl)-7-azaspiro[3.5]non-7-yl)benzamide]
- IC50 (BCL2): < 0.01 µM
- IC50 (BCL2 (G101V)): < 0.01 µM
- IC50 (BCL2 (D103Y)): < 10 nM
- IC50 (RS4; 11 cells): 0.0005 to 0.001 µM
- IC50 (BCL-XL; values in nM): > 500 nM
